In publication PMC10041525, “New Dual Inhibitors of Bacterial Topoisomerases with Broad-Spectrum Antibacterial Activity and In Vivo Efficacy against Vancomycin-Intermediate Staphylococcus aureus” (Journal of Medicinal Chemistry, 2023):
“And” between values parts separate entries of the source, which are not always exact repeats. Identical values can stand only once.

Legend:
S. pneumoniae (n = 12) = assay: MIC broth microdilution at IHMA Europe; assay type: cell-based
E. faecalis ATCC 29212 [1] = tested on: E. faecalis ATCC 29212; parameters: method as in earlier work; details: QC range for E. faecalis ATCC 29212, ref CLSI; cited from earlier work
[2] = tested on: Haemophilus influenzae (n = 14); assay: MIC broth microdilution at IHMA Europe; assay type: cell-based, H. influenzae
[3] = tested on: N. gonorrhoeae ATCC 49226; assay: IHMA QC MIC; assay type: cell-based; details: QC strain N. gonorrhoeae ATCC 49226, test date 2021-11-18
From the text: (§1) Supplement jm2c01905_si_004.xlsx, sheet "QC" | column: MIC [µg/mL]

S. pneumoniae ATCC 49619 [4] = assay: IHMA QC MIC; assay type: cell-based
From the text: as §1

E. faecalis ATCC 29212 [5] = assay: IHMA QC MIC; assay type: cell-based
From the text: as §1

H. influenzae ATCC 49247 = assay: IHMA QC MIC; assay type: cell-based
From the text: as §1

H. influenzae ATCC 49766 = assay: IHMA QC MIC; assay type: cell-based
From the text: as §1

E. faecium (n = 13) = assay: MIC broth microdilution at IHMA Europe; assay type: cell-based
E. coli ATCC 25922 = assay: IHMA QC MIC; assay type: cell-based
P. aeruginosa ATCC 27853 = assay: IHMA QC MIC; assay type: cell-based
S. pneumoniae ATCC 49619 [6] = tested on: S. pneumoniae ATCC 49619; parameters: method as in earlier work; details: QC range for S. pneumoniae ATCC 49619, ref CLSI; cited from earlier work
[7] = tested on: Neisseria gonorrhoeae (n = 12); assay: MIC broth microdilution at IHMA Europe; assay type: cell-based
[8] = tested on: N. gonorrhoeae ATCC 49226; parameters: method as in earlier work; details: QC range for N. gonorrhoeae ATCC 49226, ref CLSI; cited from earlier work

## penicillin
S. pneumoniae (n = 12); MIC 0.5 µg/mL
  Cumulative % at MIC: 25.0%
  No. of isolates at MIC: 2
S. pneumoniae (n = 12); MIC 1 µg/mL
  Cumulative % at MIC: 41.7%
  No. of isolates at MIC: 2
S. pneumoniae (n = 12); MIC 2 µg/mL
  Cumulative % at MIC: 83.3%
  No. of isolates at MIC: 5
S. pneumoniae (n = 12); MIC […] µg/mL
  Cumulative % at MIC: 100.0%
  No. of isolates at MIC: 2
S. pneumoniae (n = 12); MIC ≤0.03 µg/mL
  Cumulative % at MIC: 8.3%
  No. of isolates at MIC: 1
S. pneumoniae (n = 12); S. pneumoniae IHMA N° 1775387
  MIC: 2 µg/mL
S. pneumoniae (n = 12); S. pneumoniae IHMA N° 1776057
  MIC: 1 µg/mL
S. pneumoniae (n = 12); S. pneumoniae IHMA N° 1785617
  MIC: 4 µg/mL
S. pneumoniae (n = 12); S. pneumoniae IHMA N° 1800765
  MIC: 0.5 µg/mL
S. pneumoniae (n = 12); S. pneumoniae IHMA N° 1811259
  MIC: 1 µg/mL
S. pneumoniae (n = 12); S. pneumoniae IHMA N° 1831562
  MIC: ≤0,03 µg/mL
S. pneumoniae (n = 12); S. pneumoniae IHMA N° 1902609
  MIC: 2 µg/mL
S. pneumoniae (n = 12); S. pneumoniae IHMA N° 1979675
  MIC: 2 µg/mL
S. pneumoniae (n = 12); S. pneumoniae IHMA N° 1991963
  MIC: 2 µg/mL
S. pneumoniae (n = 12); S. pneumoniae IHMA N° 2057487
  MIC: 2 µg/mL
S. pneumoniae (n = 12); S. pneumoniae IHMA N° 2073087
  MIC: 4 µg/mL
S. pneumoniae (n = 12); S. pneumoniae IHMA N° 2117109
  MIC: 0.5 µg/mL
E. faecalis ATCC 29212 [1]
  MIC, CLSI Range: 1 to 4 µg/mL
[2]; H. influenzae IHMA N° 1227715
  MIC: 32 µg/mL
[2]; H. influenzae IHMA N° 1241620
  MIC: 16 µg/mL
[2]; H. influenzae IHMA N° 1244149
  MIC: 32 µg/mL
[2]; H. influenzae IHMA N° 1249803
  MIC: 4 µg/mL
[2]; H. influenzae IHMA N° 1254355
  MIC: 4 µg/mL
[2]; H. influenzae IHMA N° 1258580
  MIC: 16 µg/mL
[2]; H. influenzae IHMA N° 1262734
  MIC: 16 µg/mL
[2]; H. influenzae IHMA N° 1272723
  MIC: 16 µg/mL
[2]; H. influenzae IHMA N° 1286846
  MIC: 16 µg/mL
[2]; H. influenzae IHMA N° 1337530
  MIC: 32 µg/mL
[2]; H. influenzae IHMA N° 1440085
  MIC: 16 µg/mL
[2]; H. influenzae IHMA N° 1479509
  MIC: 16 µg/mL
[2]; H. influenzae IHMA N° 1952952
  MIC: 8 µg/mL
[2]; H. influenzae IHMA N° 2047461
  MIC: >32 µg/mL
[2]; MIC […] µg/mL
  Cumulative % at MIC: 71.4%
  No. of isolates at MIC: 7
[2]; MIC 32 µg/mL
  Cumulative % at MIC: 92.9%
  No. of isolates at MIC: 3
[2]; MIC >32 µg/mL
  Cumulative % at MIC: 100.0%
  No. of isolates at MIC: 1
[3]
  MIC: 0.25 µg/mL
S. pneumoniae ATCC 49619 [4]; QC strain S. pneumoniae ATCC 49619, test date 2021-11-11
  MIC: 0.25 µg/mL
S. pneumoniae ATCC 49619 [4]; QC strain S. pneumoniae ATCC 49619, test date 2021-11-26
  MIC: 0.25 µg/mL
E. faecalis ATCC 29212 [5]; QC strain E. faecalis ATCC 29212, test date 2021-11-11
  MIC: 2 µg/mL
E. faecalis ATCC 29212 [5]; QC strain E. faecalis ATCC 29212, test date 2021-11-26
  MIC: 2 µg/mL
H. influenzae ATCC 49247; QC strain H. influenzae ATCC 49247, test date 2021-11-11
  MIC: 4 µg/mL and 8 µg/mL
H. influenzae ATCC 49247; QC strain H. influenzae ATCC 49247, test date 2021-11-26
  MIC: 4 µg/mL
H. influenzae ATCC 49766; QC strain H. influenzae ATCC 49766, test date 2021-11-11
  MIC: 0.25 µg/mL
H. influenzae ATCC 49766; QC strain H. influenzae ATCC 49766, test date 2021-11-26
  MIC: 0.25 µg/mL
E. faecium (n = 13); E. faecium IHMA N° 1764866
  MIC: >32 µg/mL
E. faecium (n = 13); E. faecium IHMA N° 1765436
  MIC: >32 µg/mL
E. faecium (n = 13); E. faecium IHMA N° 1765746
  MIC: >32 µg/mL
E. faecium (n = 13); E. faecium IHMA N° 1893573
  MIC: >32 µg/mL
E. faecium (n = 13); E. faecium IHMA N° 1893846
  MIC: >32 µg/mL
E. faecium (n = 13); E. faecium IHMA N° 1893942
  MIC: >32 µg/mL
E. faecium (n = 13); E. faecium IHMA N° 1894055
  MIC: >32 µg/mL
E. faecium (n = 13); E. faecium IHMA N° 1897027
  MIC: >32 µg/mL
E. faecium (n = 13); E. faecium IHMA N° 1897101
  MIC: >32 µg/mL
E. faecium (n = 13); E. faecium IHMA N° 1904592
  MIC: >32 µg/mL
E. faecium (n = 13); E. faecium IHMA N° 2075051
  MIC: >32 µg/mL
E. faecium (n = 13); E. faecium IHMA N° 2077718
  MIC: >32 µg/mL
E. faecium (n = 13); E. faecium IHMA N° 2083787
  MIC: >32 µg/mL
E. faecium (n = 13); MIC >32 µg/mL
  Cumulative % at MIC: 100.0%
  No. of isolates at MIC: 13
E. coli ATCC 25922; QC strain E. coli ATCC 25922, test date 2021-11-11
  MIC: 32 µg/mL and 16 µg/mL
E. coli ATCC 25922; QC strain E. coli ATCC 25922, test date 2021-11-26
  MIC: 32 µg/mL
P. aeruginosa ATCC 27853; QC strain P. aeruginosa ATCC 27853, test date 2021-11-11
  MIC: >32 µg/mL and 32 µg/mL
P. aeruginosa ATCC 27853; QC strain P. aeruginosa ATCC 27853, test date 2021-11-26
  MIC: >32 µg/mL
S. pneumoniae ATCC 49619 [6]
  MIC, CLSI Range: 0,25 - 1 µg/mL
[7]; MIC 0.5 µg/mL
  Cumulative % at MIC: 33.3%
  No. of isolates at MIC: 2
[7]; MIC 1 µg/mL
  Cumulative % at MIC: 50.0%
  No. of isolates at MIC: 2
[7]; MIC 2 µg/mL
  Cumulative % at MIC: 75.0%
  No. of isolates at MIC: 3
[7]; MIC >16 µg/mL
  Cumulative % at MIC: 100.0%
  No. of isolates at MIC: 2
[7]; MIC […]
  Cumulative % at MIC: 16.7%
  No. of isolates at MIC: 2
[7]; MIC […] µg/mL
  Cumulative % at MIC: 83.3%
  No. of isolates at MIC: 1
[7]; isolate IHMA 1123853
  MIC: 4 µg/mL
[7]; isolate IHMA 1130935
  MIC: 0.25 µg/mL
[7]; isolate IHMA 1130989
  MIC: 0.25 µg/mL
[7]; isolate IHMA 1130991
  MIC: 2 µg/mL
[7]; isolate IHMA 1137292
  MIC: 1 µg/mL
[7]; isolate IHMA 1145734
  MIC: 2 µg/mL
[7]; isolate IHMA 1145735
  MIC: >16 µg/mL
[7]; isolate IHMA 1165897
  MIC: >16 µg/mL
[7]; isolate IHMA 1194748
  MIC: 0.5 µg/mL
[7]; isolate IHMA 1194750
  MIC: 0.5 µg/mL
[7]; isolate IHMA 1546199
  MIC: 2 µg/mL
[7]; isolate IHMA 1546215
  MIC: 1 µg/mL
[8]
  MIC, CLSI Range: 0,25 - 1 µg/mL
